Assay results from patent US20200149038A1, “METHODS AND COMPOSITIONS RELATING TO HOMOLOGY-DIRECTED REPAIR” (CHILDREN'S MEDICAL CENTER CORPORATION, priority 2016, published 2020).
Like-named read-outs stand apart in the source and are kept apart here.

Legend:
[1] = tested on: primary human CD34+ hematopoietic stem and progenitor cells; conditions: Mandal et al. 2014; cited from earlier work
[2] = tested on: Cas9 with gRNA targeting CCR5 in HEK293 cells; experiment: High Throughput Genome-wide Translocation Sequencing (HTGTS) off-target analysis; type: cell-based, human
Text: However the impact of DNA repair pathway choice manipulation on genomic integrity is largely unaddressed. To address the impact of ectopic expression of RAD52 and dn53BP1 genomic integrity and CRISPR/Cas9-associated off-target effects the state of the art “High Throughput Genome-wide Translocation Sequencing” (HTGTS)^20—an unbiased approach to monitor off-target (OT) cutting—was utilized. […] As CRISPR/Cas9 may have unintended cutting activity at totally unrelated sequences that can not be predicted by an algorithm, the off-target activity of each guide by HTGTS was examined (data not shown). Though majority of the OTs identified by HGTS overlapped with those identified previously, it was possible to detect novel OTs (data not shown). To study the impact of RAD52 and dn53BP1 on OTs and genomic integrity one guide with no OTs (CCR5D) and other guide that has 7 OTs identified by HTGTS (CCR5Q) were further examined.
HTGTS and Off-Target Analysis. Off-target analysis was carried out by HTGTS as described earlier^20. Briefly, HEK293 cells were co-transfected with expression plasmids encoding Cas9:RAG1B (20 μg), guide RNA targeting CCR5 (10 μg), RAD52 and dn53BP1 (5 μg each) and GFA (5 μg) using Calcium Phosphate. Cells were lysed 48 hours post-transfection and DNA was isolated by ethanol precipitation. 50 μg of DNA was processed for HTGTS as described^20.
However, the impact that such manipulations may have on genomic integrity has not been addressed. To address the impact of ectopic expression of RAD52 and dn53BP1 on genomic integrity and CRISPR/Cas9 specificity High Throughput Genome-wide Translocation Sequencing (HTGTS) was utilized (Frock et al., 2014)—an unbiased approach to monitor the specificity and off-target (OT) activity of Cas9 and other engineered nucleases as well as other types of DSBs.
HTGTS was conducted to analyse off-target effects for gRNA targeting CCR5 (FIG. 8A).

Substance | off-target activity in CD34+ HSPC [1] | number of off-target sites (OTs) identified by HTGTS [2] | number of off-target sites (OTs) identified by HTGTS ([2]; listed as CCR5D)
gCCR5D: guide RNA targeting CCR5, spacer TCACTATGCTGCCGCCCAGT (guide TCACTATGCTGCCGCCCAGTGGG; listed as DNA, chemistry not given here; the letters are possibly those of the target site; listed as Homo sapiens) | did not exhibit OT activity | no OT | no OTs
gCCR5Q: guide RNA targeting CCR5, spacer GCTGTGTTTGCGTCTCTCCC (guide GCTGTGTTTGCGTCTCTCCCAGG; listed as DNA, chemistry not given here; the letters are possibly those of the target site; listed as Homo sapiens) | did not exhibit OT activity | 7 | 
